# Reference: PubChem BioAssay (NCI)
#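 Protocol summary: plate cells (96-well), add compound at 5 concentrations, incubate 48 h, interpolate endpoints linearly. At the GI50, growth is halved. TGI denotes the concentration required for complete inhibition of growth.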
# Tests used:
# Assay in all cases: NCI-60 cell line screen, 48 h
# SK-MEL-5 melanoma = tested on: SK-MEL-5 melanoma
# HCC-2998 colon = tested on: HCC-2998 colon
# A549 NSCLC = tested on: A549 NSCLC
# U251 CNS = tested on: U251 CNS
# NCI-H23 lung = tested on: NCI-H23 lung
# HL-60(TB) leukemia = tested on: HL-60(TB) leukemia
# OVCAR-8 ovarian = tested on: OVCAR-8 ovarian
# M14 melanoma = tested on: M14 melanoma
# UO-31 renal = tested on: UO-31 renal
# SK-MEL-2 melanoma = tested on: SK-MEL-2 melanoma
# MALME-3M melanoma = tested on: MALME-3M melanoma
# K-562 leukemia = tested on: K-562 leukemia
# TK-10 renal = tested on: TK-10 renal
# NCI-H226 lung = tested on: NCI-H226 lung
# NCI-H460 lung = tested on: NCI-H460 lung
# ACHN renal = tested on: ACHN renal
# OVCAR-5 ovarian = tested on: OVCAR-5 ovarian
# COLO 205 colon = tested on: COLO 205 colon
# HS 578T breast = tested on: HS 578T breast
# OVCAR-3 ovarian = tested on: OVCAR-3 ovarian
# SF-268 CNS = tested on: SF-268 CNS
# MDA-MB-231 breast = tested on: MDA-MB-231 breast
# OVCAR-4 ovarian = tested on: OVCAR-4 ovarian
# HOP-92 NSCLC = tested on: HOP-92 NSCLC
# SF-295 CNS = tested on: SF-295 CNS
# NCI-H522 lung = tested on: NCI-H522 lung
# HT29 colon = tested on: HT29 colon
# UACC-257 melanoma = tested on: UACC-257 melanoma
# KM12 colon = tested on: KM12 colon
# CAKI-1 renal = tested on: CAKI-1 renal
# SW-620 colon = tested on: SW-620 colon
# SF-539 CNS = tested on: SF-539 CNS
# SNB-19 CNS = tested on: SNB-19 CNS
# UACC-62 melanoma = tested on: UACC-62 melanoma
# DU-145 prostate = tested on: DU-145 prostate
# HOP-62 NSCLC = tested on: HOP-62 NSCLC
# LOX IMVI melanoma = tested on: LOX IMVI melanoma
# MDA-MB-435 = tested on: MDA-MB-435
# RXF 393 renal = tested on: RXF 393 renal
# IGROV1 ovarian = tested on: IGROV1 ovarian
# MDA-MB-468 breast = tested on: MDA-MB-468 breast
# MOLT-4 leukemia = tested on: MOLT-4 leukemia
# HCT-15 colon = tested on: HCT-15 colon
# BT-549 breast = tested on: BT-549 breast
# HCT-116 colon = tested on: HCT-116 colon
# T-47D breast = tested on: T-47D breast
# NCI/ADR-RES ovarian = tested on: NCI/ADR-RES ovarian
# SN12C renal = tested on: SN12C renal
# 786-0 renal = tested on: 786-0 renal
# RPMI-8226 leukemia = tested on: RPMI-8226 leukemia
# CCRF-CEM leukemia = tested on: CCRF-CEM leukemia
# SK-MEL-28 melanoma = tested on: SK-MEL-28 melanoma
# A498 renal = tested on: A498 renal
# MCF7 breast = tested on: MCF7 breast
# SNB-75 CNS = tested on: SNB-75 CNS
# PC-3 prostate = tested on: PC-3 prostate
# EKVX NSCLC = tested on: EKVX NSCLC
# SK-OV-3 ovarian = tested on: SK-OV-3 ovarian
structure (smiles),measurement,setting,value
O=C(N=Nc1c(O)[nH]c2ccc(Br)cc12)c1ccc2nc(-c3ccccc3)[nH]c2c1,GI50,SK-MEL-5 melanoma,3.38 µM
same,TGI,SK-MEL-5 melanoma,12.1 µM
same,GI50,HCC-2998 colon,1.48 µM
same,TGI,HCC-2998 colon,3.11 µM
same,GI50,A549 NSCLC,2.22 µM
same,TGI,A549 NSCLC,7.41 µM
same,GI50,U251 CNS,0.418 µM
same,TGI,U251 CNS,1.59 µM
same,GI50,NCI-H23 lung,1.53 µM
same,TGI,NCI-H23 lung,3.65 µM
same,GI50,HL-60(TB) leukemia,2.54 µM
same,TGI,HL-60(TB) leukemia,6.73 µM
same,GI50,OVCAR-8 ovarian,1.53 µM
same,TGI,OVCAR-8 ovarian,3.76 µM
same,GI50,M14 melanoma,1.95 µM
same,TGI,M14 melanoma,4.14 µM
same,GI50,UO-31 renal,> 100 µM
same,TGI,UO-31 renal,> 100 µM
same,GI50,SK-MEL-2 melanoma,2.17 µM
same,TGI,SK-MEL-2 melanoma,4.78 µM
same,GI50,MALME-3M melanoma,1.62 µM
same,TGI,MALME-3M melanoma,3.35 µM
same,GI50,K-562 leukemia,1.29 µM
same,TGI,K-562 leukemia,6.99 µM
same,GI50,TK-10 renal,3.61 µM
same,TGI,TK-10 renal,70.1 µM
same,GI50,NCI-H226 lung,2.03 µM
same,TGI,NCI-H226 lung,5.43 µM
same,GI50,NCI-H460 lung,1.79 µM
same,TGI,NCI-H460 lung,3.53 µM
same,GI50,ACHN renal,8.96 µM
same,TGI,ACHN renal,> 100 µM
same,GI50,OVCAR-5 ovarian,3.72 µM
same,TGI,OVCAR-5 ovarian,27.1 µM
same,GI50,COLO 205 colon,2.53 µM
same,TGI,COLO 205 colon,6.95 µM
same,GI50,HS 578T breast,1.86 µM
same,TGI,HS 578T breast,4.83 µM
same,GI50,OVCAR-3 ovarian,2.14 µM
same,TGI,OVCAR-3 ovarian,4.26 µM
same,GI50,SF-268 CNS,2 µM
same,TGI,SF-268 CNS,4.6 µM
same,GI50,MDA-MB-231 breast,1.69 µM
same,TGI,MDA-MB-231 breast,3.18 µM
same,GI50,OVCAR-4 ovarian,1.99 µM
same,TGI,OVCAR-4 ovarian,4.26 µM
same,GI50,HOP-92 NSCLC,2.17 µM
same,TGI,HOP-92 NSCLC,6.63 µM
same,GI50,SF-295 CNS,1.86 µM
same,TGI,SF-295 CNS,3.78 µM
same,GI50,NCI-H522 lung,1.38 µM
same,TGI,NCI-H522 lung,3.1 µM
same,GI50,HT29 colon,2.66 µM
same,TGI,HT29 colon,8.75 µM
same,GI50,UACC-257 melanoma,3.27 µM
same,TGI,UACC-257 melanoma,21.7 µM
same,GI50,KM12 colon,22 µM
same,TGI,KM12 colon,> 100 µM
same,GI50,CAKI-1 renal,> 100 µM
same,TGI,CAKI-1 renal,> 100 µM
same,GI50,SW-620 colon,1.82 µM
same,TGI,SW-620 colon,3.61 µM
same,GI50,SF-539 CNS,1.77 µM
same,TGI,SF-539 CNS,3.43 µM
same,GI50,SNB-19 CNS,1.79 µM
same,TGI,SNB-19 CNS,4.35 µM
same,GI50,UACC-62 melanoma,1.75 µM
same,TGI,UACC-62 melanoma,3.37 µM
same,GI50,DU-145 prostate,1.95 µM
same,TGI,DU-145 prostate,4.06 µM
same,GI50,HOP-62 NSCLC,1.69 µM
same,TGI,HOP-62 NSCLC,3.36 µM
same,GI50,LOX IMVI melanoma,1.23 µM
same,TGI,LOX IMVI melanoma,2.51 µM
same,GI50,MDA-MB-435,2.32 µM
same,TGI,MDA-MB-435,4.93 µM
same,GI50,RXF 393 renal,2.57 µM
same,TGI,RXF 393 renal,6.6 µM
same,GI50,IGROV1 ovarian,3.03 µM
same,TGI,IGROV1 ovarian,13.2 µM
same,GI50,MDA-MB-468 breast,1.61 µM
same,TGI,MDA-MB-468 breast,3.06 µM
same,GI50,MOLT-4 leukemia,1.34 µM
same,TGI,MOLT-4 leukemia,4.01 µM
same,GI50,HCT-15 colon,18.6 µM
same,TGI,HCT-15 colon,> 100 µM
same,GI50,BT-549 breast,3.55 µM
same,TGI,BT-549 breast,26.5 µM
same,GI50,HCT-116 colon,3.24 µM
same,TGI,HCT-116 colon,12.8 µM
same,GI50,T-47D breast,1.07 µM
same,TGI,T-47D breast,2.52 µM
same,GI50,NCI/ADR-RES ovarian,> 100 µM
same,TGI,NCI/ADR-RES ovarian,> 100 µM
same,GI50,SN12C renal,1.86 µM
same,TGI,SN12C renal,4.11 µM
same,GI50,786-0 renal,2.01 µM
same,TGI,786-0 renal,3.91 µM
same,GI50,RPMI-8226 leukemia,17.2 µM
same,TGI,RPMI-8226 leukemia,> 100 µM
same,GI50,CCRF-CEM leukemia,3.18 µM
same,TGI,CCRF-CEM leukemia,> 100 µM
same,GI50,SK-MEL-28 melanoma,1.79 µM
same,TGI,SK-MEL-28 melanoma,3.42 µM
same,GI50,A498 renal,3.55 µM
same,TGI,A498 renal,17.9 µM
same,GI50,MCF7 breast,1.7 µM
same,TGI,MCF7 breast,5.09 µM
same,GI50,SNB-75 CNS,2.11 µM
same,TGI,SNB-75 CNS,5.62 µM
same,GI50,PC-3 prostate,2.92 µM
same,TGI,PC-3 prostate,> 100 µM
same,GI50,EKVX NSCLC,3 µM
same,TGI,EKVX NSCLC,11.2 µM
same,GI50,SK-OV-3 ovarian,1.97 µM
same,TGI,SK-OV-3 ovarian,4.29 µM
